Experimental findings from US10968203B2, “Pyrimidinyl-pyridyloxy-naphthyl compounds and methods of treating IRE1-related diseases and disorders” (Genentech, Inc., priority 2017, dated 2021) are described below.

The subject of the test is XBP1s-luc 293 LUC. The test can be described thus: cellular PD assay, XBP1s-LUC reporter (Example 903). The test is classed as cell-based. The note with it: read-out: XBP1s-luc 293 LUC (IC50). The method in brief:
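Cellular IRE1α pathway activity was quantified from the luciferase signal of an XBP1-Luc reporter, where the luciferase fusion is in frame and expressed only from the spliced XBP1 transcript.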

pIC50: −log10 of the molar value. Where a name gives a salt, the structure may show the parent alone. Read-outs that look alike come from different tables or passages of the source.

One may read the pIC50 as the IC50 on a negative log10 scale, so that one unit is a factor of ten. On to `Cc1ccc2c(NC(=O)C3CC3C(C)C)cccc2c1Oc1ncccc1-c1ccnc(N[C@H]2CCCNC2)n1` (single isomer, unassigned) [Example 230], for which the pIC50 (Table 1) is 7.10.
For `Cc1ccc2c(NC[C@H](O)C(F)F)cccc2c1Oc1ncccc1-c1ccnc(N[C@H]2CCCNC2)n1` (single isomer, unassigned) [Example 475, hydrochloride], under “Table 2”, the pIC50 was 7.72.
With `Cc1ccc2c(NC(=O)[C@@H]3CC34CC4)c(F)ccc2c1Oc1ncccc1-c1ccnc(N[C@H]2CCCNC2)n1` (single isomer, unassigned) [Example 380], for the setting “Table 1”, the pIC50 was 7.25.
As for `Cc1ccc2c(NS(=O)(=O)N(C)CC(F)(F)F)c(F)ccc2c1Oc1ncccc1-c1ccnc(N[C@H]2CNC[C@H](F)C2)n1` (single isomer, unassigned) [Example 499, hydrochloride], under “Table 2”, the negative logarithm of the IC50 (pIC50) is 6.17.
For the molecule `CCn1ccc(Nc2cccc3c(Oc4ncccc4-c4ccnc(N[C@H]5CCCNC5)n4)c(C)ccc23)n1` [Example 272, (S)-4-(2-((5-((1-Ethyl-1H-pyrazol-3-yl)amino)-2-methylnaphthalen-1-yl)oxy)pyridin-3-yl)-N-(piperidin-3-yl)pyrimidin-2-amine], under “Table 1”, the negative logarithm of the IC50 (pIC50) was 6.33.
On the same count and under the same terms, as for `CCC(C)C(=O)Nc1cccc2c(Oc3ncccc3-c3ccnc(N[C@H]4CCCNC4)n3)c(C)ccc12` (stereo partly drawn) [Example 182, 2-Methyl-N-(6-methyl-5-((3-(2-(((S)-piperidin-3-yl)amino)pyrimi-din-4-yl)pyridin-2-yl)oxy)naphthalen-1-yl)butanamide], the figure is 6.81; as for `Cc1ccc2c(NC(=O)CC(C)(C)C)c(F)ccc2c1Oc1ncccc1-c1ccnc(N[C@@H]2CNC[C@H](C)C2)n1` [Example 374, N-(2-Fluoro-6-methyl-5-((3-(2-(((3S,5R)-5-methylpiperidin-3-yl)amino)pyrimidin-4-yl)pyridin-2-yl)oxy)naphthalen-1-yl)-3,3-dimethylbutanamide], 7.40; as for `Cc1ccc2c(NS(=O)(=O)Cc3ccccc3Cl)c(F)ccc2c1Oc1ncccc1-c1ccnc(N[C@H]2CCCNC2)n1` [Example 102, (S)-1-(2-Chlorophenyl)-N-(2-fluoro-6-methyl-5-((3-(2-(piperidin-3-ylamino)pyrimidin-4-yl)pyridin-2-yl)oxy)naphthalen-1-yl)methanesulfonamide], 8.34.
Same read-out and setting: as for `Cc1ccc2c(Oc3ncccc3-c3ccnc(N[C@H]4CCCNC4)n3)c(C)ccc2c1NS(=O)(=O)CC(C)C` [Example 376, (S)—N-(2,6-Dimethyl-5-((3-(2-(piperidin-3-ylamino)pyrimidin-4-yl)pyridin-2-yl)oxy)naphthalen-1-yl)-2-methylpropane-1-sulfonamide], the figure is 7.13.
Still for that read-out and setting: as for `Cc1ccc2c(NC(=O)C3CC3C(F)(F)F)cccc2c1Oc1ncccc1-c1ccnc(N[C@H]2CCCNC2)n1` (single isomer, unassigned) [Example 228], the figure is 7.06.
For the molecule `Cc1ccc2c(NC(=O)/C=C/C(F)(F)F)cccc2c1Oc1ncccc1-c1ccnc(N[C@H]2CCCNC2)n1` [Example 407, (S)-4,4,4-Trifluoro-N-(6-methyl-5-((3-(2-(piperidin-3-ylamino)pyrimidin-4-yl)pyridin-2-yl)oxy)naphthalen-1-yl)but-2-enamide], the pIC50 (Table 2) was 6.66.
On the same count and under the same terms, to `Cc1ccc2c(NS(=O)(=O)Cc3ccccc3C#N)c(F)ccc2c1Oc1ncccc1-c1ccnc(N[C@H]2CCCNC2)n1` [Example 434, (S)-1-(2-Cyanophenyl)-N-(2-fluoro-6-methyl-5-((3-(2-(piperidin-3-ylamino)pyrimidin-4-yl)pyridin-2-yl)oxy)naphthalen-1-yl)methanesulfonamide hydrochloride] belongs 8.22.
On to `Cc1ccc2c(NC[C@H](O)C(F)(F)F)cccc2c1Oc1ncccc1-c1ccnc(N[C@@H]2CNC[C@H](C)C2)n1` [Example 321, (S)-1,1,1-Trifluoro-3-((6-methyl-5-((3-(2-(((3S,5R)-5-methylpiperidin-3-yl)amino)pyrimidin-4-yl)pyridin-2-yl)oxy)naphthalen-1-yl)amino)propan-2-ol], for which the negative logarithm of the IC50 (pIC50) (Table 1) is 8.13.
